Measurements: patent US8048924B2, “Methods and compositions employing 4-aminophenylacetic acid compounds” (Biocon Limited, priority 2001, dated 2011)

Tests used:
[1] = tested on: Clostridium difficile toxin A-induced colitis; test: Toxin A-induced colitis, chronic oral administration in drinking water for 5 days; format: in vivo, Sprague-Dawley rats
Method: Eighteen adult male Sprague-Dawley rats weighing 175-222 grams were divided into 3 groups each consisting of 6 animals: • 4-APAA (AA-002) 100 mg/kg orally+Toxin A (10 μg) injected into the lumen of the colon • Vehicle (DW) orally+Toxin A (10 μg) injected into the lumen of the colon • Vehicle (DW) orally
Following 5 days of 4-APAA administration in drinking water, both ketamine (67 mg/kg) and xylazine (33 mg/kg) were administered, an isolated colonic segment was surgically created, and 10 μg of Clostridium difficile toxin A was injected into the lumen of the colon. After 3 hours, the rats were euthanized and colonic inflammation was assessed by quantitating luminal fluid accumulation and myeloperoxidase (MPO) content in the colon tissue. In addition, histological evaluation of the treated colon segments was completed.
Drug Administration. In studies using chronic administration, sulfasalazine, APAZA™, and 4-APAA were administered in the drinking water at doses ranging from 0.1-100 mg/kg·d for 5 days. Sulfasalazine and APAZA™ were initially dissolved in 0.1 N NaOH at 30 times the desired final concentration and then the pH was adjusted to 8.5 with 1 N HCl and the solution was diluted 30-fold with distilled water. 4-APAA was dissolved in water. On the fifth day, the rats were fasted overnight (with access to their drinking water±sulfasalazine, APAZA™, or 4-APAA ad lib), anesthetized, and isolated colonic segments were surgically created as described below. In studies using acute administration, the rats were pretreated by injection of 4-APAA at doses of 10 or 100 μg in 200 μl of PBS (pH 7.4) into the lumen of the colonic segment using a 27 ga syringe needle. Toxin A (10 μg) in 200 μl of PBS (pH 7.4) was tested alone or injected into the lumen of the colonic segment 30 minutes after 4-APAA using a 27 ga syringe needle.
Surgery. Isolated colonic segments were created in male Sprague-Dawley rats (150-175 g) as described previously for isolated ileal segments (see, Gastroenterol. 111: 1272-1280 (1996) and Proc. Natl. Acad. Sci. USA 91: 947-951 (1994). Rats fasted overnight with free access to drinking water were anesthetized by intramuscular injection of 67 mg/kg ketamine:33 mg/kg xylazine. A midline abdominal incision was made and colonic segments 5 cm in length were created by ligation with 4-0 silk sutures, taking care not to disturb the vascular supply. Toxin A (10 μg) in 400 μl of PBS (pH 7.4) was injected into the lumen of the colonic segment using a 27 ga syringe needle. Control rats were prepared similarly and their colonic segments were injected with the vehicles. The midline incision was then closed with a running suture, and the rats were placed on a heating pad at 37° C. for 3 hours. After 3 hours, the rats were euthanized and samples of the treated colonic segments were taken for analysis in vitro.
Histopathology. The severity of colonic histological damage was assessed using formalin-fixed, paraffin-embedded, H&E-stained sections.
Luminal Fluid Accumulation. Luminal fluid accumulation was measured gravimetrically. After 3 hours of treatment, the isolated colonic segments were removed, weighed, and their lengths were measured. Luminal fluid accumulation is expressed as mg wet weight per cm length.
Myeloperoxidase Activity. Myeloperoxidase (MPO) activity was measured as described previously (see, J. Invest. Dermatol. 78: 206-209 (1982)). Briefly, pieces of control and treated colonic segments were homogenized in 0.5% hexadecyltrimethylammonium bromide in 50 mM KH2PO4 (pH 6), freeze/thawed three times, centrifuged at 4° C. for 2 minutes, and then the absorbance of each supernatant was read at 460 nm at 0, 30, and 60 seconds after the addition of 2.9 ml of o-dianisidine dihydrochloride to 0.1 ml supernatant. The maximal change in absorbance per minute was used to calculate the units of MPO activity based on the molar absorbency index of oxidized o-dianisidine of 1.13×10^4 M^−1 cm^−1. […]

[2] = Single oral dose plasma pharmacokinetics and elimination of APAZA and metabolites in mice; format: in vivo, male CD-1 mice; conditions: single oral dose of APAZA, male CD-1 mice
Method: Initial single dose pharmacokinetic studies with the APAZA™ compound have been conducted in dogs and mice. A study was completed in order to determine the plasma pharmacokinetics and elimination of the APAZA™ compound and its metabolites (5-ASA, 4-APAA, 5-aceASA and 4-aceAPAA) following single oral dose administration to male CD-1 mice. […] When normalized to molar values, the Cmax values for all the APAZA™ metabolites were less than APAZA™; the values ranged from 2.68 to 13.8 μM. However, the normalized APAZA™ AUC∞ value was not greater than all the other metabolites; these values ranged from […]. […] The Tmax values for APAZA™ and its metabolites were 1 hour and 4 hours, respectively.

DNBS colitis = test: Study AA-PH-003: oral and rectal APAZA and sulfasalazine in DNBS colitis; format: in vivo, male Lewis rats; design: Average Diarrhea Score Day 3: scale not given here; conditions: for Colonic Inflammation Scores: scale 0-2
Method: Study AA-PH-003 was designed to evaluate the anti-inflammatory efficacy of oral and rectal doses of APAZATM and sulfasalazine in the DNBS colitis model in rats. […] Thirty-five adult male Lewis rats (body weight 200-250 g) were studied. […] Animal body weights and incidence of diarrhea were recorded daily. […] Animals in the DNBS groups and the parallel deionized water group were sacrificed on day 5. Laparotomies and colectomies were performed and animals were scored for the presence and severity of intestinal adhesions, strictures, inflammation, and ulceration. Colon: body weight ratios were determined and colon histopathology was performed.

DSS induced colitis = test: Dextran sulfate sodium (DSS) colitis in the rat; format: in vivo, Sprague-Dawley rats; conditions: oral gavage bid
Method: The effectiveness of APAZA™ and sulfasalazine in ameliorating intestinal inflammation in a model of dextran sulfate sodium (DSS) induced colitis in Sprague-Dawley rats was determined. Thirty-six male Sprague-Dawley rats that were 7-8 weeks old and weighed 240-260 g were studied. […] After completion of the treatment period, rats were euthanized and the efficacy of the test drugs in inhibiting colitis was assessed by the following: • Disease Activity Index Scoring: • Body weight • Colon wet weight: body weight ratios • Colonic Myeloperoxidase (MPO) activity • Histopathological changes of the colon

[3] = 100 mg/kg·day in drinking water, 5 days
[4] = 100 mg/kg·day in drinking water, 5 days, toxin A 10 μg
[5] = orally + 30 mg DNBS, APAZA 200 mg/kg, sulfasalazine 265.6 mg/kg
[6] = rectally + 30 mg DNBS, APAZA 200 mg/kg, sulfasalazine 265.6 mg/kg
[7] = 1 mg/kg·day in drinking water, 5 days
[8] = 10 mg/kg·day in drinking water, 5 days

**Q.** Which “toxin A-induced MPO activity, significance of inhibition” value [1, 3] does the source give for `O=C(O)Cc1ccc(/N=N/c2ccc(CC(=O)O)cc2)cc1` [4-APAA dimer, [4-(4-Carboxymethyl-phenylazo)-phenyl]-acetic acid] here?
**A.** significantly inhibited

**Q.** What about the “toxin A-induced luminal fluid accumulation, significance of inhibition” value [1, 3] of the same compound?
**A.** did not inhibit

**Q.** And the “toxin A-induced structural damage of the colon (H&E)” value [1, 3]?
**A.** did not inhibit

**Q.** What about the “percent inhibition of toxin A-induced MPO activity” value [1, 4] of the same compound?
**A.** 60±9%

**Q.** What about the “percent inhibition of toxin A-induced luminal fluid accumulation” value [1, 4] of the same compound?
**A.** 21±8%

**Q.** Which “plasma concentration at 24 hours” value [2] does the source give for `CC(=O)Nc1ccc(CC(=O)O)cc1` [4-aceAPAA, (4-acetylamino-phenyl)-acetic acid, reference compound] here?
**A.** below the limit of detection

**Q.** What does the source list for `CC(=O)Nc1ccc(O)c(C(=O)O)c1` [acetylated 5-ASA]?
**A.** t1/2 ([2]; plasma): 11.27 h; plasma concentration at 24 hours [2]: below the limit of detection

**Q.** What does the source list for `O=C(O)c1cc(/N=N/c2ccc(S(=O)(=O)Nc3ccccn3)cc2)ccc1O` [sulfasalazine, reference compound]?
**A.** reduction relative to control in net colon: body weight (% BW) ratio (DNBS colitis; oral groups): 38.4%; Average Diarrhea Score Day 3 (DNBS colitis; [5]): 2.4; Colon Histopathology (# severe lesions) (DNBS colitis; [5]): 8; Length of Colonic Inflammation (cm) (DNBS colitis; [5]): 2.3 cm; Mean Body Weight (DNBS colitis; [5]): 215.4 g; Mean Colon Length (cm) (DNBS colitis; [5]): 12.9 cm; Net Colon: Body Weight Ratio (DNBS colitis; [5]): 0.1862; Colonic Inflammation Scores (DNBS colitis; [5]): 1.4; Average Diarrhea Score Day 3 (DNBS colitis; [6]): 2; Length of Colonic Inflammation (cm) (DNBS colitis; [6]): 1.8 cm; Mean Body Weight (DNBS colitis; [6]): 217.0 g; Mean Colon Length (cm) (DNBS colitis; [6]): 12.8 cm; Net Colon: Body Weight Ratio (DNBS colitis; [6]): 0.179; Colonic Inflammation Scores (DNBS colitis; [6]): 1; body weights, rats drinking DW versus DSS (DSS induced colitis; days 10 and 11): statistically significant differences; colon wet weight: body weight ratio, DSS versus DW (DSS induced colitis; APAZA 100 mg/kg, sulfasalazine 133 mg/kg): increased; Disease Activity Index (DAI) score (DSS induced colitis; rats drinking 5% DSS, APAZA 100 mg/kg, sulfasalazine 133 mg/kg): significantly greater; colonic MPO activity (DSS induced colitis; rats receiving DSS): significant increase; histological changes of the colon (DSS induced colitis; rats receiving DSS): severe colitis; toxin A-induced MPO activity, significance of inhibition [1, 7]: did not significantly inhibit; toxin A-induced luminal fluid accumulation, significance of inhibition [1, 7]: did not significantly inhibit; toxin A-induced structural damage of the colon (H&E) [1, 7]: little effect; toxin A-induced luminal fluid accumulation, significance of inhibition [1, 8]: significantly inhibited; toxin A-induced structural damage of the colon (H&E) [1, 8]: little effect; toxin A-induced MPO activity, significance of inhibition [1, 3]: significantly inhibited; toxin A-induced luminal fluid accumulation, significance of inhibition [1, 3]: significantly inhibited; toxin A-induced structural damage of the colon (H&E) [1, 3]: did inhibit; doses that significantly inhibited toxin A-induced colitis ([1]; chronically for 5 days in drinking water, doses tested 1-100): 100 mg/kg·day
